Source: patent US20250044299A1, “PROTEIN STABILITY ASSAY” (Medicines Discovery Catapult Limited, priority 2021, published 2025)
Values belong to the compound of their own block, whether it stands above or below them.

Tests used:
Format in all cases: binding
p38α MAPK = p38α MAPK (Homo sapiens, UniProt Q16539); assay: Protein stability assay screening study, AlphaLISA endpoint, HEK293T cell lysate, compound concentration response at fixed AEA or EA (Example 2); parameters: endogenous in cells; host or cells: HEK293T; settings: fixed 22% AEA or 20% EA, 10-point concentration response
p38α MAPK, sequence (Q16539 whole entry): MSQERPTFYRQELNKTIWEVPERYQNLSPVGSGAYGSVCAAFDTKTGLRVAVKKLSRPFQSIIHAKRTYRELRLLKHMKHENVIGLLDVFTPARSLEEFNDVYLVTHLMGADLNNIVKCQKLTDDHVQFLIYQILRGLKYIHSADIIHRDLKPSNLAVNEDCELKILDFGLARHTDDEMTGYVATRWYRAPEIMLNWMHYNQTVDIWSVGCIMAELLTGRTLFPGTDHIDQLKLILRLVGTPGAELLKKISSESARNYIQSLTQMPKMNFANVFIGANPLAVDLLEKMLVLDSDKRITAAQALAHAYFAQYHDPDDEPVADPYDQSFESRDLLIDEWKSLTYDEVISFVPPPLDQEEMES
Method: The fixed denaturant concentration to be added was made up as a 5/4 stock so that when 8 μl of denaturant was added to 2 μl lysate the final volume was 10 μl and the denaturant concentrations were as listed above. After compound/lysate incubation was complete 8 μl of the prepared AEA or EA stock was added to each well of separate plates, the contents of the plates were settled by a short pulse spin, sealed, and then incubated with shaking at 800 rpm for 120 minutes on a heated plate shaker set to 21° C. For signal detection an antibody detection mix was made up no more than 20 minutes prior to use. […] 10 μl of antibody bead mix was added to each test well, the contents of the plates were settled by a short pulse spin, sealed, shaken gently for 1-2 minutes, wrapped in foil, and then incubated for 16-18 hours in the dark. After incubation the plates were read on a fluorescence detecting plate reader (Excitation 680 nm, Emission 615 nm) to determine well signals. Concentration response curves were produced from normalised data using the Genedata Screener data analysis package, and EC50 values generated to allow data comparison between the two denaturant types.

CDK9 = molecular target: T1, CDK9 (Homo sapiens, UniProt P50750); assay: Protein stability assay with Western blot endpoint, cell lysate, AEA titration (Example 5); settings: 100 μM compound as printed, vs DMSO
T1 construct: Lysate from U-2 OS cells grown in continuous culture; endogenous in cells; b320 says HEK293T
T1 sequence (P50750 whole entry): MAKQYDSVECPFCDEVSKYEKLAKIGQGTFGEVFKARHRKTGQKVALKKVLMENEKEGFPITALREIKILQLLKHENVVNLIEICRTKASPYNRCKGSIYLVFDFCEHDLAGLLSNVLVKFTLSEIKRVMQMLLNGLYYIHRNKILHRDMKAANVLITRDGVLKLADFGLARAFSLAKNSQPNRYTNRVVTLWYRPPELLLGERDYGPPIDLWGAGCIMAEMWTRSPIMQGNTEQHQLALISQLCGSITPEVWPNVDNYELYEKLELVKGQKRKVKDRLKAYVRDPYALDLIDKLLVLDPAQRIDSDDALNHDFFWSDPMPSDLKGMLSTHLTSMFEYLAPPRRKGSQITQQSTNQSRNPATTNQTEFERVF
T1 sequence (O60563 whole entry partner): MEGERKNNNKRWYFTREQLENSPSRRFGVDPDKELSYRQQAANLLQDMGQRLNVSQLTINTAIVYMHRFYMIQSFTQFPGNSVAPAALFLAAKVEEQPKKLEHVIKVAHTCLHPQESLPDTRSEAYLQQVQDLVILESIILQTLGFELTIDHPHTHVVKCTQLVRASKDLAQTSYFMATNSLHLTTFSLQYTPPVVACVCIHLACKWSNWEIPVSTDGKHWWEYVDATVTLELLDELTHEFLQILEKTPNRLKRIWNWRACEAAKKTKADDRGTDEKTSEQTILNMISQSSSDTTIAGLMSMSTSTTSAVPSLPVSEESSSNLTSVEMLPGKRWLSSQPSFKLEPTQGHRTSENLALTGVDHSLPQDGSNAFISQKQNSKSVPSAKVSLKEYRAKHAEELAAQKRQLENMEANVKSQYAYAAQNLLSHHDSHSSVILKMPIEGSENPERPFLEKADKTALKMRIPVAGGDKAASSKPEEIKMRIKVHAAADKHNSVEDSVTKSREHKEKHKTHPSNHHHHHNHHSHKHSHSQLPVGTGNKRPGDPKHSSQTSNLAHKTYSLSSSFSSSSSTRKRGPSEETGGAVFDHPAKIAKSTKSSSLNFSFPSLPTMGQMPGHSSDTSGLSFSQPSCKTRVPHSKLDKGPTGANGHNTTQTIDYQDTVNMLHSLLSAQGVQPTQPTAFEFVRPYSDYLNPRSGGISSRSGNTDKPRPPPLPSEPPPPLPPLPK
Method: (§1) Lysate from U-2 OS cells grown in continuous culture at 5% CO2/37° C. in full growth media (RPMI (Gibco 11835-063), 10% FCS (Gibco F7524) 1% Glutamax (Gibco 35050-061)) was produced by growing cells in T175 flasks to 85% confluence, removing from the surface using 3 ml Tryple Select (Gibco 12563011), centrifuging (1000 rpm for 4 minutes) to pellet, washing cell pellet two times in DPBS (Gibco 14190-094), resuspending 1 ml of DPBS (Gibco 14190-094) containing 1× HALT Protease and Phosphatase inhibitor cocktail (Thermo Scientific 78440) per flask and lysing by three cycles of a liquid nitrogen freeze followed by thawing at room temperature. […]
Lysate/compound mixes were incubated for 30-60 minutes at room temperature. While incubating, fresh 100% AEA (Acetone (11443733) Ethanol (10437341) and Acetic Acid (10365020), all from Fisher Scientific in a ratio of 50:50:0.1) denaturant was made in a glass bottle ready for use. An aliquot of 100% AEA was diluted to 50% in DPBS (Gibco 14190-094) ready to produce either titration curves or a fixed concentration of denaturant. […]

AKT1 = molecular target: T2, AKT1 (Homo sapiens, UniProt P31749); assay: Protein stability assay, AlphaLISA endpoint, HEK293T cell lysate, EA (Example 8)
T2 construct: endogenous in cells; host or cells: HEK293T
T2 sequence (P31749 whole entry): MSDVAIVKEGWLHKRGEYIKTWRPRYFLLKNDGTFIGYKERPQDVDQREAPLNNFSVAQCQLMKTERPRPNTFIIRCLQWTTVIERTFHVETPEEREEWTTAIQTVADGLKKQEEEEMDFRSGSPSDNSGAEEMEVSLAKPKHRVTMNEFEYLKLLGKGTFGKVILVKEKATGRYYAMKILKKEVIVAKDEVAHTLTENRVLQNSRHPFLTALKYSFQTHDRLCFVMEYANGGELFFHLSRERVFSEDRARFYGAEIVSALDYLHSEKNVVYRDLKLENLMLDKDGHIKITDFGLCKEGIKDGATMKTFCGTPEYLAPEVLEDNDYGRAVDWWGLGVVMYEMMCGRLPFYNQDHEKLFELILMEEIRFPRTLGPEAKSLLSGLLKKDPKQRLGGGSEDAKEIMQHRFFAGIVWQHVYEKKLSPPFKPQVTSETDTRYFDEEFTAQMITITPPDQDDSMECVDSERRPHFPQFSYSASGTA
Method: as §1, with “HEK293T” for “U-2 OS”, “in” for “in T175”, “resuspending in” for “resuspending”
To run the protein stability assay, an aliquot of HEK293T cell lysate at 4 μg/μl was thawed at room temperature and 2 μl added to each well of a 384-well White ProxiPlate (Perkin Elmer 6008280) containing […] MK-2206 (LKT Laboratories M400220) or an equivalent volume of DMSO dosed using the Labcyte ECHO. […] While incubating, fresh 100% EA (Ethanol (10437341) and Acetic Acid (10365020), all from Fisher Scientific in a ratio of 100:0.1) denaturant was made in a glass bottle ready for use. An aliquot of 100% EA was diluted to 50% in DPBS (Gibco 14190-094) ready to produce titration curves of denaturant. […]

Structure (SMILES): Cc1c(F)cc(C(=O)NC2CC2)cc1-c1c(F)cn2c(C(C)(C)C)nnc2c1F [AL 8697]
stabilisation of protein, compound concentration response curves (p38α MAPK): stabilisation of protein in a dose dependent manner

stabilisation of CDK9 protein against chemical denaturation (CDK9): increased stabilisation of CDK9 protein
Structure (SMILES): Cc1ncc(-c2ccnc(Nc3ccc(S(C)(=O)=O)cc3)n2)n1C(C)C [AZD5438]

stabilisation of AKT1 protein (shift in protein denaturation curves) (AKT1; 10 μM compound, EA titration, vs DMSO only): stabilisation of AKT1 protein
Structure (SMILES): NC1(c2ccc(-c3nc4ccn5c(=O)[nH]nc5c4cc3-c3ccccc3)cc2)CCC1 [MK-2206]
AKT1 protein stabilisation, concentration response curve (AKT1; fixed 18% EA): AKT1 protein stabilisation by MK-2206 in a dose dependent manner

Structure (SMILES): O=c1ncn2nc(Sc3ccc(F)cc3F)ccc2c1-c1c(Cl)cccc1Cl [VX 745]
stabilisation of protein, compound concentration response curves (p38α MAPK): stabilisation of protein in a dose dependent manner
